Among the data in patent US20080108611A1, “SUBSTITUTED THIENOPYRIMIDINE KINASE INHIBITORS” (priority 2006, published 2008) are IC50 and inhibition values, retold here.

Molecules are shown by their SMILES.

Assay [1] concerns the target T1, VEGF-R2 (Rattus norvegicus, UniProt O08775).
T1 construct: polyhistidine (N)
As to the kind of experiment: VEGF-R2 Screening Assay. It is filed as biochemical. Conditions: rat VEGF-R2 kinase domain, 10 μM ATP. As for the experimental part: A kinase reaction mixture was prepared containing 50 mM Tris-HCl at pH 8, 10 mM MgCl2, 0.1 mM Na3PO4, 1 mM DTT, 10 μM ATP, 0.025 μM biotinylated histone-H1 peptide substrate and 0.2 μCuries per well ^33P-γ-ATP (2000-3000 Ci/mmol). 70 μL of the kinase reaction mixture was dispensed into the well of a Streptavidin FlashPlate.
Test compound stock in 100% DMSO (1 μL) was added to the wells resulting in a final concentration of 1% DMSO in the reaction with a 100 μL final reaction volume. Each enzyme was diluted in 50 mM Tris-HCl pH=8.0, 0.1% BSA and 30 μL was added to each well to initiate the reaction. The reaction was incubated for one hour at 30° C. At the end of the 1 hr incubation, the reaction was terminated by aspirating the mixture from the plate and washing the wells twice with PBS containing 100 mM EDTA. The biotinylated peptide substrate became immobilized on the Flashplate™ and the incorporation of ^33P-γ-ATP was measured by reading the plate on a scintillation counter. Inhibition of the enzymatic activity was measured by observing a reduced amount of ^33P-γ-ATP incorporated into the immobilized peptide.
The VEGF-R2 enzyme is a fusion protein containing a polyhistidine tag at the N terminus followed by amino acids 786 to 1343 of the rat VEGF-R2 kinase domain (Accession number U93306). The assay used 150 ng of the N-terminal biotinylated peptide biotin-KHKKLAEGSAYEEV-amide (VEGF-R2) per well.
The IC50 was derived according to the procedure described in Example 1.

Assay [2] addresses T2, Lyn kinase (Homo sapiens, UniProt P07948).
T2 construct: purchased Upstate Biotechnology, Lake Placid, N.Y
As to the kind of experiment: Lyn Kinase Assay. It is filed as biochemical. Conditions: test concentration of 2 μM; read-out: Lyn Inhibition (%) Inh. The procedure:
A mixture of a 10× kinase buffer (500 mM MOPS at pH 7.5, 1 mM EGTA, 1 mM Sodium Vanadate, 1% β-mercaptoethanol and 100 mM Magnesium Acetate), ATP (5 μM final from a 10 mM stock), polyGluTyr (0.1 mg/mL final from a 1 mg/mL stock), γ-^33P ATP (10 μCi/μL stock) and water (20 μL/well) was added to each well of a Streptavidin Flashplate.
Test compound in 100% DMSO (0.5 μL) was added to the appropriate wells. Diluted Lyn kinase (human) (Upstate Biotechnology, Lake Placid, N.Y.) (diluted in a buffer consisting of 50 mM Tris at pH 7.5, 0.1 mM EGTA, Sodium Vanadate (0.1 mM), 13-mercaptoethanol (0.1%) and 1 mg/mL bovine serum albumin) (2.5 μL) was added to the wells to initiate the reactions.
The reaction plates were incubated at 30° C. for 40 min. The reaction was terminated by the addition of a 3% phosphoric acid solution (5 μL). The reaction product (10 μL) was spotted onto a P30 filtermat and washed for 5 minutes in phosphoric acid (75 mM). The wash sequence was repeated two more times, followed with one final wash in methanol. The plates were then dried, sealed and read on the TopCount scintillation counter after adding 30 μL scintillation fluid. Percent inhibition was derived according to the procedure described in Example 1. The percent inhibition results are shown in Table 4 at a test concentration of 2 μM.

The subject of assay [3] is A375 malignant melanoma. Description: Cell Proliferation Inhibition Assay (14C-thymidine incorporation), A375. Conditions: Homo sapiens, A-375; A375 cells. Type of assay: cell-based. The procedure: The ability of a test compound to inhibit unregulated cell proliferation was determined by measuring incorporation of ^14C-labelled thymidine into newly synthesized DNA within cell lines derived from carcinomas originating from several tissues. Accordingly, the anti-proliferative effect of a compound on cells with a variety of phenotypes may be determined.
Carcinoma cell lines include those such as HeLa cervical adenocarcinoma (American Type Culture Collection (ATCC), Virginia, Cat. #CCL-2), A375 malignant melanoma (ATCC CRL-1619), SK-OV-3 ovarian adenocarcinoma (ATCC HTB-77), HCT-116 colon carcinoma (CCL-247), PC-3 prostate adenocarcinoma (ATCC CRL-1435), and MDA-MB-231 (Xenogen Corp.)
The carcinoma cells were trypsinized and counted. The cells (3000-8000 count) were added to each well of a 96-well CytoStar tissue culture treated scintillating microplate (Amersham #RPNQ0160) in complete medium (100 μL) and the plate was then incubated in complete medium for 24 hrs at 37° C. in an […] atmosphere containing 5% CO2. Test compound (1 μL) in 100% DMSO was added to the plate test-wells with DMSO only added to control-wells. The plate was incubated in complete medium for a second 24 hr period at 37° C. in an atmosphere containing 5% CO2.
An aliquot of a solution of methyl ^14C-thymidine (56 mC/mmol) (NEN #NEC568 or Amersham #CFA532) and complete medium (20 uL to provide 0.2 μCi/well) was then added to each well and the plate was incubated for a third 24 hr period at 37° C. in an atmosphere containing 5% CO2. The plate contents were then discarded, the plate was washed twice with PBS (200 μL) and then PBS (200 μL) was added to each well. The plate was sealed and the degree of methyl ^14C-thymidine incorporation was quantified on a Packard Top Count.
(Dividing cells build labelled thymidine or BrdU into new DNA.)

T1 sequence (O08775 786-1343): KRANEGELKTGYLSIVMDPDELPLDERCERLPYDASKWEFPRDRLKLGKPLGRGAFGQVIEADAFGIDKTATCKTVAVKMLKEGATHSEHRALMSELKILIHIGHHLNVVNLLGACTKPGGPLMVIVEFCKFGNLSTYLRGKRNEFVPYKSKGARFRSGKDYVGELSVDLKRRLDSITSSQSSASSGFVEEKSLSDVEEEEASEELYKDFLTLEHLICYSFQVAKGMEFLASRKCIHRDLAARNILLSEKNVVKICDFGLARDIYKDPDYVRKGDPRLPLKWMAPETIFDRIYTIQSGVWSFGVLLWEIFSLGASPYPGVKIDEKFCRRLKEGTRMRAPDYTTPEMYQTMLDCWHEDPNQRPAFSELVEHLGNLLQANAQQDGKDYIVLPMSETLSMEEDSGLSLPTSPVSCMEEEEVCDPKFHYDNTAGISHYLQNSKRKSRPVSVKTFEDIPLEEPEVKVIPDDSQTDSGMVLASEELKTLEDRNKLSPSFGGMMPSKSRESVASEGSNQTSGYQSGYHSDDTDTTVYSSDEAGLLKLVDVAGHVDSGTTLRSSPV
T2 sequence (P07948 whole entry): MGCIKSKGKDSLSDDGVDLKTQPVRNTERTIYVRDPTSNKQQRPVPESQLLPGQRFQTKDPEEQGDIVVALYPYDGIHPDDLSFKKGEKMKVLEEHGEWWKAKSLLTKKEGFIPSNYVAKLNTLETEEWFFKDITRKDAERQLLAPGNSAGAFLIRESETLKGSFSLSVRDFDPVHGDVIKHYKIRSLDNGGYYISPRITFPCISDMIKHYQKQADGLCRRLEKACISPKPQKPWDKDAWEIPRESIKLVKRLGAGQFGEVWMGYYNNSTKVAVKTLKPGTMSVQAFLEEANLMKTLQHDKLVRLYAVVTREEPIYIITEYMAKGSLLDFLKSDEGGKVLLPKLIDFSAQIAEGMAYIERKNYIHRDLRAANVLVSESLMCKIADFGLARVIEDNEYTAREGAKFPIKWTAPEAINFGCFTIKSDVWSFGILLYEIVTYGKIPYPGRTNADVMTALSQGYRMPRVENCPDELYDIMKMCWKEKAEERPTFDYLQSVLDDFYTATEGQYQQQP

As usually defined, the IC50 is the concentration needed to halve the response being measured. Low values mean inhibition by little substance, high ones a need for much substance. Broadly, the inhibition is the drop in the measured response relative to a control, in per cent. On to `Cc1cc2c(F)c(Oc3ncnc4sc(C(=O)NCCN5CCOCC5)c(C)c34)ccc2[nH]1` [Cpd 19, 4-(4-fluoro-2-methyl-1H-indol-5-yloxy)-5-methyl-thieno[2,3-d]pyrimidine-6-carboxylic acid (2-morpholin-4-yl-ethyl)-amide], for which the IC50 in assay [1] is 248 nM; in assay [3], over 10000 nM. Also, the inhibition at 2 µM in assay [2] was found to be 16%.
Taken in the same sequence, the figures for `Cc1cc2c(F)c(Oc3ncnc4sc(C(=O)Nc5ccc(CN6CCOCC6)cc5)c(C)c34)ccc2[nH]1` [Cpd 20, 4-(4-fluoro-2-methyl-1H-indol-5-yloxy)-5-methyl-thieno[2,3-d]pyrimidine-6-carboxylic acid (4-morpholin-4-ylmethyl-phenyl)-amide] were 761 nM, over 10000 nM and 20%.
Taken in the same sequence, the figures for `Cc1cc2c(F)c(Oc3ncnc4sc(C(=O)NCCN5CCCCC5)c(C)c34)ccc2[nH]1` [Cpd 21, 4-(4-fluoro-2-methyl-1H-indol-5-yloxy)-5-methyl-thieno[2,3-d]pyrimidine-6-carboxylic acid (2-piperidin-1-yl-ethyl)-amide] were 393 nM, 1500 nM and 8%.
On the same counts, the results for `Cc1cc2c(F)c(Oc3ncnc4sc(C(=O)NCCN5CCCC5)c(C)c34)ccc2[nH]1` [Cpd 22, 4-(4-fluoro-2-methyl-1H-indol-5-yloxy)-5-methyl-thieno[2,3-d]pyrimidine-6-carboxylic acid (2-pyrrolidin-1-yl-ethyl)-amide] are 619 nM, 2200 nM and -2%.
Regarding `Cc1c(C(=O)Nc2ccc(CN3CCOCC3)cc2)sc2ncnc(Nc3ccc(Oc4ccccc4)cc3)c12` [Cpd 23, 5-methyl-4-(4-phenoxy-phenylamino)-thieno[2,3-d]pyrimidine-6-carboxylic acid (4-morpholin-4-ylmethyl-phenyl)-amide], the IC50 in assay [1] is over 100000 nM; in assay [3] it was 2900 nM. Further, in assay [2], the inhibition at 2 µM came out at 9%.
Taken in the same sequence, the figures for `Cc1c(C(=O)NCCN2CCOCC2)sc2ncnc(Nc3ccc(Oc4ccccc4)cc3)c12` [Cpd 24] were about 100000 nM, over 10000 nM and 23%.
With `COCCNC(=O)c1sc2ncnc(Oc3ccc4[nH]c(C)cc4c3F)c2c1C` [Cpd 27, 4-(4-fluoro-2-methyl-1H-indol-5-yloxy)-5-methyl-thieno[2,3-d]pyrimidine-6-carboxylic acid (2-methoxy-ethyl)-amide], the IC50 in assay [1] was 378 nM; in assay [3] it was over 10000 nM. The inhibition at 2 µM in assay [2] came out at 23%.
